According to US5057493A, “Novel antibiotics R106” (priority 1988, dated 1991):
Starred links: 1 amine or outer side, 2 acyl side, 3 side chain; linkers in the order of their positions; H or OH if unused. Non-standard residues stand in square brackets, D forms with d. Residues, ends and D or L forms follow the SMILES beside them. ξ: configuration not given here. ξNMeVal(3-OH) = CNC(C(=O)O)C(C)(C)O; NMeF = CN[CH](Cc1ccccc1)C(=O)O; X1 = CCC(C)C(O[*:1])C(=O)[*:2]; NMeV = CN[CH](C(=O)O)C(C)C

Experiments:
[1] = system: Blastomyces dermatitidis TIMM 1690; assay: MIC by agar dilution method, casitone agar; format: cell-based; settings: 27° C. for 7 days
[2] = system: Aspergillus clavatus TIMM 0056; assay: MIC by agar dilution method, casitone agar; format: cell-based; settings: 27° C. for 7 days
[3] = system: Sporothrix schenckii TIMM 0959; assay: MIC by agar dilution method, casitone agar; format: cell-based; settings: 27° C. for 7 days
[4] = system: Trichophyton rubrum TIMM 1216; assay: MIC by agar dilution method, casitone agar; format: cell-based; settings: 27° C. for 7 days
[5] = system: Microsporum canis TIMM 0760; assay: MIC by agar dilution method, casitone agar; format: cell-based; settings: 27° C. for 7 days
[6] = system: Trichophyton mentagrophytes TIMM 1177; assay: MIC by agar dilution method, casitone agar; format: cell-based; settings: 27° C. for 7 days
[7] = system: Candida albicans TIMM 1529; assay: MIC by agar dilution method, casitone agar; format: cell-based; settings: 27° C. for 4 days
Method: (§1) The minimum inhibitory concentration (MIC) of each antibiotic against various fungi was determined by the agar dilution method using casitone agar medium (2.0% glucose, 0.9% bacto-casitone, 1.0% yeast extract, 0.1% KH2 PO4, 0.1% Na2 HPO4, 1.0% sodium citrate, 2.0% agar: concentrations are all by w/v).
(§2) Each minimum growth inhibitory concentration was determined after culturing at 27° C. for 4 days.

[8] = system: Cryptococcus laurentii TIMM 0352; assay: MIC by agar dilution method, casitone agar; format: cell-based; settings: 27° C. for 4 days
Method: as §1, §2

[9] = system: Candida glabrata TIMM 1064; assay: MIC by agar dilution method, casitone agar; format: cell-based; settings: 27° C. for 4 days
Method: as §1, §2

[10] = system: Cryptococcus terreus TIMM 0424; assay: MIC by agar dilution method, casitone agar; format: cell-based; settings: 27° C. for 4 days
Method: as §1, §2

[11] = system: Cryptococcus neoformans TIMM 0354; assay: MIC by agar dilution method, casitone agar; format: cell-based; settings: 27° C. for 4 days
Method: as §1, §2

[12] = system: Candida tropicalis TIMM 0312; assay: MIC by agar dilution method, casitone agar; format: cell-based; settings: 27° C. for 4 days
Method: as §1, §2

[13] = system: Candida albicans TIMM 0144; assay: MIC by agar dilution method, casitone agar; format: cell-based; settings: 27° C. for 4 days
Method: as §1, §2

[14] = system: Candida tropicalis TIMM 0315; assay: MIC by agar dilution method, casitone agar; format: cell-based; settings: 27° C. for 4 days
Method: as §1, §2

[15] = system: Cryptococcus neoformans TIMM 0355; assay: MIC by agar dilution method, casitone agar; format: cell-based; settings: 27° C. for 4 days
Method: as §1, §2

[16] = system: Candida krusei TIMM 0270; assay: MIC by agar dilution method, casitone agar; format: cell-based; settings: 27° C. for 4 days
Method: as §1, §2

[17] = system: Candida guilliermondii TIMM 0257; assay: MIC by agar dilution method, casitone agar; format: cell-based; settings: 27° C. for 4 days
Method: as §1, §2

[18] = system: Candida kefyr TIMM 0298; assay: MIC by agar dilution method, casitone agar; format: cell-based; settings: 27° C. for 4 days
Method: as §1, §2

[19] = system: Candida glabrata TIMM 1062; assay: MIC by agar dilution method, casitone agar; format: cell-based; settings: 27° C. for 4 days
Method: as §1, §2

[20] = system: Rhodotorula rubra TIMM 0923; assay: MIC by agar dilution method, casitone agar; format: cell-based; settings: 27° C. for 4 days
Method: as §1, §2

[21] = system: Cryptococcus neoformans TIMM 0363; assay: MIC by agar dilution method, casitone agar; format: cell-based; settings: 27° C. for 4 days
Method: as §1, §2

[22] = system: Candida albicans var. stellatoidia TIMM 1308; assay: MIC by agar dilution method, casitone agar; format: cell-based; settings: 27° C. for 4 days
Method: as §1, §2

[23] = system: Candida albicans TIMM 1623; assay: MIC by agar dilution method, casitone agar; format: cell-based; settings: 27° C. for 4 days
Method: as §1, §2

[24] = system: Candida parapsilosis TIMM 0287; assay: MIC by agar dilution method, casitone agar; format: cell-based; settings: 27° C. for 4 days
Method: as §1, §2

[25] = system: Cladosporium carrionii TIMM 0337; assay: MIC by agar dilution method, casitone agar; format: cell-based; settings: 27° C. for 7 days
[26] = system: Trichosporon cutanum TIMM 1318; assay: MIC by agar dilution method, casitone agar; format: cell-based; settings: 27° C. for 7 days
[27] = system: Fonsecaea pedrosoi TIMM 0482; assay: MIC by agar dilution method, casitone agar; format: cell-based; settings: 27° C. for 7 days
[28] = Physicochemical properties of compound 1
Source text: Physicochemical properties of compound 1 are as follows.

[29] = system: Aspergillus citrinum TIMM 1330; assay: MIC by agar dilution method, casitone agar; format: cell-based; settings: 27° C. for 7 days
[30] = system: Aspergillus crustorum TIMM 1332; assay: MIC by agar dilution method, casitone agar; format: cell-based; settings: 27° C. for 7 days
[31] = system: Aspergillus terreus TIMM 0120; assay: MIC by agar dilution method, casitone agar; format: cell-based; settings: 27° C. for 7 days
[32] = 50% lethal dose (LD50) in mice; format: in vivo
Source text: All of the antibiotics R106 show low toxicity. The results of 50% lethal dose (LD50) obtained when each of representative compounds of the present invention was given to mice intravenously, intraperitoneally and orally are shown in Table 7.

[33] = system: Histoplasma capsulatum TIMM 0714; format: cell-based; settings: 27° C. for 7 days
[34] = system: Paracoccidioides brasiliensis TIMM 0878; assay: MIC by agar dilution method, casitone agar; format: cell-based; settings: 27° C. for 7 days
Method: as §1, with “The antibiotics R106 of the present invention are active against various fungi including pathogenic fungi. The” for “The”
(§3) After culturing at 27° C. for 7 days, each minimum inhibitory concentration was determined.

[35] = system: Paracoccidioides brasiliensis TIMM 0880; assay: MIC by agar dilution method, casitone agar; format: cell-based; settings: 27° C. for 7 days
Method: as §1, with “The antibiotics R106 of the present invention are active against various fungi including pathogenic fungi. The” for “The”
as §3

With `CCC(C)C1NC(=O)C2CCCN2C(=O)C(Cc2ccccc2)N(C)C(=O)C(Cc2ccccc2)NC(=O)C(C(C)C)N(C)C(=O)C(C(C)CC)OC(=O)C(C(C)(C)O)N(C)C(=O)C(CC(C)C)NC(=O)C(C(C)C)N(C)C1=O` (stereo not drawn) [Compound 1] (cyclo([ξNMeVal(3-OH)][X1][NMeV]F[NMeF]PI[NMeV]L); configuration not given here) the “Minimum Inhibitory Concentration” value [1] was ≤ 0.04 µg/mL, the “Minimum Inhibitory Concentration” value [2] was 0.16 µg/mL and the “Minimum Inhibitory Concentration” value [3] was > 80 µg/mL. The “Minimum Inhibitory Concentration” value [4] was > 80 µg/mL, the “Minimum Inhibitory Concentration” value [5] was > 80 µg/mL and the “Minimum Inhibitory Concentration” value [6] was > 80 µg/mL. The “Minimum Inhibitory Concentration” value [7] was ≤ 0.04 µg/mL, the “Minimum Inhibitory Concentration” value [8] was 0.31 µg/mL and the “Minimum Inhibitory Concentration” value [9] was 0.08 µg/mL. For the same compound, the “Minimum Inhibitory Concentration” value [10] was 0.31 µg/mL, the “Minimum Inhibitory Concentration” value [11] was 0.63 µg/mL and the “Minimum Inhibitory Concentration” value [12] was 0.08 µg/mL. For the same compound, the “Minimum Inhibitory Concentration” value [13] was ≤ 0.04 µg/mL, the “Minimum Inhibitory Concentration” value [14] was 0.08 µg/mL and the “Minimum Inhibitory Concentration” value [15] was 0.31 µg/mL. For the same compound, the “Minimum Inhibitory Concentration” value [16] was ≤ 0.04 µg/mL, the “Minimum Inhibitory Concentration” value [17] was 0.08 µg/mL and the “Minimum Inhibitory Concentration” value [18] was 0.16 µg/mL. For the same compound, the “Minimum Inhibitory Concentration” value [19] was ≤ 0.04 µg/mL, the “Minimum Inhibitory Concentration” value [20] was 0.63 µg/mL and the “Minimum Inhibitory Concentration” value [21] was 1.25 µg/mL. For the same compound, the “Minimum Inhibitory Concentration” value [22] was ≤ 0.04 µg/mL, the “Minimum Inhibitory Concentration” value [23] was ≤ 0.04 µg/mL and the “Minimum Inhibitory Concentration” value [24] was 0.16 µg/mL. For the same compound, the “Minimum Inhibitory Concentration” value [25] was 1.25 µg/mL, the “Minimum Inhibitory Concentration” value [26] was > 80 µg/mL and the “Minimum Inhibitory Concentration” value [27] was 0.31 µg/mL. For the same compound, the “Acidic, neutral or basic” value [28] was “neutral substance”, the Solubility in solvent ([28]; organic solvents) was “soluble in chloroform, methanol, ethanol, N,N-dimethylformamide and dimethylsulfoxide” and the Solubility in solvent ([28]; water) was “sparingly soluble in water”. For the same compound, the “Minimum Inhibitory Concentration” value [29] was > 80 µg/mL, the “Minimum Inhibitory Concentration” value [30] was > 80 µg/mL and the “Minimum Inhibitory Concentration” value [31] was 5 µg/mL. The LD50 ([32]; i.p.) was > 400 mg/kg, the LD50 ([32]; i.v.) was > 200 mg/kg and the LD50 ([32]; p.o.) was > 1000 mg/kg. The “Minimum Inhibitory Concentration” value [33] was 0.08 µg/mL, the “Minimum Inhibitory Concentration” value [34] was 80 µg/mL and the “Minimum Inhibitory Concentration” value [35] was 0.31 µg/mL.
